Converted amounts (≈) assume the structure as drawn.
Experiments:
[1] = tested on: Candida albicans NHL 4019; test: Antimicrobial activity (MIC); type: cell-based; conditions: NHL4019, read-out: Minimal Inhibitory Concentrations (MICs)
[2] = tested on: Trichophyton tonsurans IFO 5928; test: Antimicrobial activity (MIC); type: cell-based; conditions: IFO5928, read-out: Minimal Inhibitory Concentrations (MICs)
[3] = tested on: Streptococcus faecalis IFO 12964; test: Antimicrobial activity (MIC); type: cell-based; conditions: Enterococcus faecalis, IFO12964, read-out: Minimal Inhibitory Concentrations (MICs)
[4] = tested on: Staphylococcus aureus Terajima; test: Antimicrobial activity (MIC); type: cell-based; conditions: read-out: Minimal Inhibitory Concentrations (MICs)
[5] = tested on: Pseudomonas aeruqinosa IFO 13736; test: Antimicrobial activity (MIC); type: cell-based; conditions: IFO13736, read-out: Minimal Inhibitory Concentrations (MICs)
[6] = tested on: Klebsiella pneumoniae ATCC 10031; test: Antimicrobial activity (MIC); type: cell-based; conditions: ATCC10031, read-out: Minimal Inhibitory Concentrations (MICs)
[7] = tested on: Staphylococcus aureus Smith; test: Antimicrobial activity (MIC); type: cell-based; conditions: read-out: Minimal Inhibitory Concentrations (MICs)
[8] = tested on: Aspergillus niger ATCC 9642; test: Antimicrobial activity (MIC); type: cell-based; conditions: ATCC9642, read-out: Minimal Inhibitory Concentrations (MICs)
[9] = tested on: Staphylococcus aureus 209P; test: Antimicrobial activity (MIC); type: cell-based; conditions: read-out: Minimal Inhibitory Concentrations (MICs)
Shigella flexneri 2b = test: Antimicrobial activity (MIC); type: cell-based; conditions: read-out: Minimal Inhibitory Concentrations (MICs)
[10] = tested on: Micrococcus lysodeikticus IFO 3333; test: Antimicrobial activity (MIC); type: cell-based; conditions: Micrococcus luteus, IFO3333, read-out: Minimal Inhibitory Concentrations (MICs)
[11] = Property as to basic, acid or neutral; type: physicochemical
Solubility to solvents = type: physicochemical
Escherichia coli 0-1 = test: Antimicrobial activity (MIC); type: cell-based; conditions: 01, read-out: Minimal Inhibitory Concentrations (MICs)
Serratia marcescens NHL = test: Antimicrobial activity (MIC); type: cell-based; conditions: read-out: Minimal Inhibitory Concentrations (MICs)
Sarcina lutea ATCC 9341 = test: Antimicrobial activity (MIC); type: cell-based; conditions: Micrococcus luteus, ATCC9341, read-out: Minimal Inhibitory Concentrations (MICs)
[12] = tested on: Bacillus subtilis ATCC 6633; test: Antimicrobial activity (MIC); type: cell-based; conditions: ATCC6633, read-out: Minimal Inhibitory Concentrations (MICs)
Proteus rettgeri = test: Antimicrobial activity (MIC); type: cell-based; conditions: Providencia rettgeri, read-out: Minimal Inhibitory Concentrations (MICs)
[13] = tested on: Pyricularia oryzae IAM 5016; test: microbe, parasite or virus in culture; type: cell-based; conditions: IAM5016, read-out: Minimal Inhibitory Concentrations (MICs)
[14] = tested on: Staphylococcus epidermidis ATCC 12228; test: Antimicrobial activity (MIC); type: cell-based; conditions: ATCC12228, read-out: Minimal Inhibitory Concentrations (MICs)
mouse leukemia P-388 = test: Antitumor activity (life prolongation) on mouse leukemia P-388; type: in vivo; conditions: i.p. once a day ten times, CDF1 male mice, P-388 i.p.
Description: Curing effects of substances SS42227A and B on mouse leukemia P-388 were examined according to the following method. In the Table, the antitumor activities, or the effect of life prolongation, are expressed as the percentage of the survival time (days) of treated groups (T) per the survival time (days) for the untreated or control group (C).
CDF1 (male: supplied by Charles River Japan Inc.) were inoculated intraperitoneally with 1×10^6 P-388 cells. Then, commencing at 24 hours thereafter, substance SS42227A was intraperitoneally injected into the mice once a day and ten times in total.

Row | Compound | MIC [1] [µg/mL] | MIC [2] [µg/mL] | MIC [3] [µg/mL] | MIC [4] [µg/mL] | MIC [5] [µg/mL] | MIC [6] [µg/mL] | MIC [7] [µg/mL] | MIC [8] [µg/mL] | MIC [9] [µg/mL] | MIC (Shigella flexneri 2b) [µg/mL] | MIC [10] [µg/mL] | Property as to basic, acid or neutral [11] | Solubility to solvents (Solubility to solvents; acetone) | Solubility to solvents (Solubility to solvents; chloroform) | Solubility to solvents (Solubility to solvents; diethyl ether) | Solubility to solvents (Solubility to solvents; ethyl acetate) | Solubility to solvents (Solubility to solvents; methanol) | Solubility to solvents (Solubility to solvents; n-hexane) | Solubility to solvents (Solubility to solvents; water) | MIC (Escherichia coli 0-1) [µg/mL] | further results
1 | COc1cc(C(=O)OC(C(=O)NC(C(=O)NC(=CO)C(C)=O)=C2C(OC(C)=O)C(O)C3CN23)C2(C)CO2)c2cccc(C)c2c1 (stereo not shown) [SS42227B] | > 100 | > 100 | 0.78 (≈ 1.25 µM) | 50 (≈ 80.2 µM) | > 100 | 50 (≈ 80.2 µM) | 1.56 (≈ 2.5 µM) | > 100 | 50 (≈ 80.2 µM) | 0.78 (≈ 1.25 µM) | < 0.2 | Acid | Soluble | Soluble | Sparingly soluble | Soluble | Soluble | Sparingly soluble | Sparingly soluble | > 100 | MIC (Serratia marcescens NHL): > 100 µg/mL; MIC (Sarcina lutea ATCC 9341): < 0.2 µg/mL; MIC [12]: 50 µg/mL (≈ 80.2 µM); MIC (Proteus rettgeri): > 100 µg/mL; MIC [13]: > 100 µg/mL; MIC [14]: 100 µg/mL (≈ 160 µM)
2 | COc1cc(C(=O)OC(C(=O)NC(C(=O)NCC(C)=O)=C2C(OC(C)=O)C(O)C3CN23)C2(C)CO2)c2cccc(C)c2c1 (stereo not shown) [SS42227A] | > 100 | > 100 | 0.78 (≈ 1.31 µM) | 6.25 (≈ 10.5 µM) | > 100 | 3.12 (≈ 5.24 µM) | 1.56 (≈ 2.62 µM) | > 100 | 6.25 (≈ 10.5 µM) | < 0.2 | < 0.2 | Neutral | Soluble | Soluble | Soluble | Soluble | Soluble | Sparingly soluble | Sparingly soluble | > 100 | MIC (Serratia marcescens NHL): 100 µg/mL (≈ 168 µM); MIC (Sarcina lutea ATCC 9341): < 0.2 µg/mL; MIC [12]: 0.78 µg/mL (≈ 1.31 µM); MIC (Proteus rettgeri): 100 µg/mL (≈ 168 µM); Antitumor Activity T/C (survival time treated/control) (mouse leukemia P-388; 2 μg/kg/day): 163%; Antitumor Activity T/C (survival time treated/control) (mouse leukemia P-388; 4 μg/kg/day): 144%; Antitumor Activity T/C (survival time treated/control) (mouse leukemia P-388; 8 μg/kg/day): 154%; Antitumor Activity T/C (survival time treated/control) (mouse leukemia P-388; 15 μg/kg/day): 192%; Antitumor Activity T/C (survival time treated/control) (mouse leukemia P-388; 15.1 μg/kg/day): 170%; Antitumor Activity T/C (survival time treated/control) (mouse leukemia P-388; 30 μg/kg/day): 211%; Antitumor Activity T/C (survival time treated/control) (mouse leukemia P-388; 31.2 μg/kg/day): 195%; Antitumor Activity T/C (survival time treated/control) (mouse leukemia P-388; 60 μg/kg/day): 77%; Antitumor Activity T/C (survival time treated/control) (mouse leukemia P-388; 62.5 μg/kg/day): 152%; MIC [13]: 100 µg/mL (≈ 168 µM); MIC [14]: 6.25 µg/mL (≈ 10.5 µM)
